PubChem BioAssay (NCI)
Several values for one entry are separate records, joined by “and”; a condition that tells them apart may be missing. Equal entries are not always repeated.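 48-hour exposure; five concentrations; linearly interpolated endpoints. Abbreviation: GI50, concentration required for 50% inhibition of growth. TGI is the concentration that stops growth completely.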

How the values were obtained:
Experiment in all cases: NCI tumour cell line growth inhibition, 48 h
HCT-15 colon = system: HCT-15 colon
UO-31 renal = system: UO-31 renal
SN12C renal = system: SN12C renal
TK-10 renal = system: TK-10 renal
OVCAR-5 ovarian = system: OVCAR-5 ovarian
HL-60(TB) leukemia = system: HL-60(TB) leukemia
A498 renal = system: A498 renal
HOP-62 NSCLC = system: HOP-62 NSCLC
BT-549 breast = system: BT-549 breast
SNB-19 CNS = system: SNB-19 CNS

Row | Structure (SMILES) | GI50 (HCT-15 colon) | TGI (HCT-15 colon) | GI50 (UO-31 renal) | TGI (UO-31 renal) | GI50 (SN12C renal) | TGI (SN12C renal) | GI50 (TK-10 renal) | TGI (TK-10 renal) | GI50 (OVCAR-5 ovarian) | TGI (OVCAR-5 ovarian) | GI50 (HL-60(TB) leukemia) | TGI (HL-60(TB) leukemia) | GI50 (A498 renal) | TGI (A498 renal) | GI50 (HOP-62 NSCLC) | TGI (HOP-62 NSCLC) | GI50 (BT-549 breast) | TGI (BT-549 breast) | GI50 (SNB-19 CNS) | TGI (SNB-19 CNS)
1 | N#[N+]c1ccc(Nc2ccccc2)cc1 | > 50 µg/mL | > 50 µg/mL | > 50 µg/mL | > 50 µg/mL | > 50 µg/mL | > 50 µg/mL | > 50 µg/mL | > 50 µg/mL | > 50 µg/mL | > 50 µg/mL | > 50 µg/mL | > 50 µg/mL | > 50 µg/mL | > 50 µg/mL | > 50 µg/mL | > 50 µg/mL | > 50 µg/mL | > 50 µg/mL | > 50 µg/mL | > 50 µg/mL
2 | COc1cc2c3cc1Oc1c(OC)c(OC)cc4c1C(Cc1ccc(O)c(c1)Oc1ccc(cc1)CC3N(C)CC2)N(C)CC4 (stereo unspecified) | 4.82 µM | 37.6 µM and > 100 µM | 13.9 µM | 35.7 µM and 31.9 µM | 23.4 µM | 47.1 µM and > 100 µM | 20.8 µM | > 100 µM and 39.3 µM | 8.3 µM | > 100 µM and 62.4 µM | 20.2 µM | 91.3 µM and 54.6 µM | – | 48.4 µM | 24.3 µM | > 100 µM and 64.8 µM | 14.7 µM | 60.1 µM and 35.6 µM | 31.5 µM | 65.8 µM and > 100 µM
3 | COc1cc2cc(Oc3cccc(NC(=O)Nc4cc(C(F)(F)F)cc(C(F)(F)F)c4)c3)c(C)nc2cc1OC | 0.668 µM | 2.04 µM | 0.266 µM | 1.65 µM | 0.591 µM | 2.09 µM | 2.32 µM | 9.18 µM | 1.93 µM | 4.14 µM | 1.58 µM | 4.37 µM | 1.6 µM | 4.29 µM | 1.35 µM | 2.88 µM | 1.75 µM | 3.76 µM | 0.654 µM | 2.16 µM
4 | Cn1c(=O)c2c(nc(N/N=C/c3ccccc3C(=O)O)n2C)n(C)c1=O | – | > 100 µM | – | > 100 µM | – | > 100 µM | – | > 100 µM | – | > 100 µM | – | > 100 µM | – | > 100 µM | – | > 100 µM | – | > 100 µM | – | > 100 µM
5 | Nn1c(-c2ccc(Cl)cc2)nc2c(-c3ccc(Cl)cc3)nc3ccc(Cl)cc3c2c1=O | > 100 µM | > 100 µM | 16.9 µM | > 100 µM | 7.46 µM | > 100 µM | 22.4 µM | 58.4 µM | > 100 µM | > 100 µM | 2.76 µM | > 100 µM | 36 µM | 75.7 µM | 22.4 µM | 57.7 µM | 14.5 µM | 60.2 µM | 9.06 µM | 47.7 µM
6 | O=C1Nc2ccc3c(c2/C1=C\c1cc2c(cc1Br)OCO2)OCO3 | 0.515 µM | > 100 µM | 0.191 µM | 2.13 µM | 0.781 µM | 6.47 µM | 1.52 µM | 3.84 µM | 1.55 µM | 5.89 µM | 0.271 µM | 2.35 µM | 0.287 µM | 1.08 µM | 0.393 µM | 2.07 µM | 0.71 µM | 39.5 µM | 0.552 µM | 7.04 µM
7 | COc1ccc(-c2cc(/C=C/C(=O)c3ccc(N)cc3)[nH]n2)cc1 | 1 µM | 3.62 µM | 1.18 µM | 2.56 µM | 1.89 µM | 6.63 µM | 2.81 µM | 13 µM | 2.06 µM | 4.92 µM | 1.43 µM | 7.71 µM | 2.03 µM | 4.95 µM | 2.8 µM | 7.49 µM | 1.74 µM | 4.78 µM | 2.29 µM | 11.6 µM
8 | CC[C@H]1OC(=O)[C@H](C)[C@@H](O[C@H]2C[C@@](C)(OC)[C@@H](O)[C@H](C)O2)[C@H](C)[C@@H](O[C@@H]2O[C@H](C)C[C@H](N(C)C)[C@H]2O)[C@](C)(OC)C/C(C)=C2/O[C@@]1(C)C=C2C | 1.89 µM | 3.6 µM | 1.37 µM | 2.65 µM | 1.64 µM | 3.02 µM | 1.72 µM | 3.32 µM | 1.68 µM | 3.06 µM | 1.86 µM | 4.16 µM | 1.75 µM | 3.59 µM | 2.31 µM | 4.74 µM | 1.66 µM | 3.28 µM | 1.7 µM | 3.13 µM
9 | COc1ccc(C2NC(=S)NC3=C2CCOc2c3ccc3ccccc23)cc1 (stereo unspecified) | 21.4 µM | > 100 µM | 98.3 µM | > 100 µM | > 100 µM | > 100 µM | > 100 µM | > 100 µM | > 100 µM | > 100 µM | 23.4 µM | > 100 µM | 16.6 µM | > 100 µM | > 100 µM | > 100 µM | 68.8 µM | > 100 µM | > 100 µM | > 100 µM
10 | COc1ccc(C(O)c2cc3c(N)c(C(=O)Nc4cccc(Br)c4C)sc3nc2C)cc1 (stereo unspecified) | 0.138 µM | > 14.4 µM | 0.261 µM | > 33.3 µM | 0.246 µM | > 33.3 µM | 4.21 µM | > 24.4 µM | 0.666 µM | > 25.6 µM | 0.104 µM | 2.34 µM | 0.082 µM | 1.28 µM | 0.287 µM | > 30.2 µM | 0.479 µM | 15.4 µM | 0.211 µM | > 33.3 µM
11 | NCCCN=c1ccc2c3c1c(O)c1c(O)ccc(=O)c1c3[nH]n2CCNCCO | 1.4 µM | 25 µM and 112 µM | 3.78 µM and 14.2 µM | 24.5 µM and 98.1 µM | 0.413 µM and 0.391 µM | 6.15 µM and 10.2 µM | 6.59 µM | 21.3 µM and 77.7 µM | – | 17.4 µM and 17.2 µM | 0.665 µM and 0.556 µM | 1.7 µM and 9.33 µM | – | 7.19 µM and 8.57 µM | 0.484 µM | 11.1 µM and 9.68 µM | – | 5.31 µM | 0.821 µM | 6.57 µM and 14.1 µM
12 | CCOC(=O)c1c(CN2CCN(C)CC2)nc2ccc(Cl)cc2c1-c1ccccc1 | 5.42 µM | 20.9 µM | 5.98 µM | 19.5 µM | 11.6 µM | 25.9 µM | 5.11 µM | 13.6 µM | 10.8 µM | 25 µM | 2.2 µM | 6.22 µM | 4.75 µM | 17.2 µM | 11.2 µM | 25 µM | 7.1 µM | 20.8 µM | 12.7 µM | 25.6 µM
13 | COc1ccc(/C=C/C(=O)c2cc3c(N)c(C(=O)Nc4ccc(OC)cc4)sc3nc2C)cc1 | 0.391 µM | > 50 µM | 0.988 µM | > 50 µM | 0.284 µM | > 50 µM | 2.85 µM | > 50 µM | 0.299 µM | > 50 µM | 0.323 µM | 2.22 µM | 0.108 µM | 0.41 µM | 0.214 µM | > 50 µM | 0.571 µM | > 50 µM | 0.746 µM | > 41.3 µM
14 | CCOc1ccc2cc(-c3nn(CC4CCNCC4)c4ncnc(N)c34)ccc2c1 | 13.5 µM | 32.1 µM | 5.61 µM | 20.7 µM | 11.5 µM | 33 µM | 16.8 µM | 38.8 µM | 14.9 µM | 34.5 µM | 14.7 µM | 32.6 µM | 11.2 µM | 24.9 µM | 16.3 µM | 39.4 µM | 13.4 µM | 27.6 µM | 16.7 µM | 34.5 µM
15 | NC(=O)/C(=C/n1cnc(-c2cc(C(F)(F)F)cc(C(F)(F)F)c2)n1)c1cncnc1 | 0.286 µM | 6.93 µM | 0.426 µM | 12.8 µM | 0.814 µM | 12.7 µM | 0.986 µM | 13.5 µM | 0.447 µM | 16.2 µM | 0.0562 µM | 2.96 µM | 0.0848 µM | 1.26 µM | 1.06 µM | 17.2 µM | 0.12 µM | 2.98 µM | 0.654 µM | 15 µM
16 | NC1=NCN(C2OC(CO)C(O)C2O)C(=O)N1 (stereo unspecified) | – | 530 µM | – | 872 µM | – | 1680 µM | – | 1730 µM | – | 2150 µM | – | 18.4 µM | – | 804 µM | – | 966 µM | – | 765 µM | – | 2220 µM
17 | CCOC1Oc2ccc(C)cc2C(=O)/C1=C\Nc1ccc(S(N)(=O)=O)cc1 (stereo unspecified) | 12.5 µM | > 50 µM | 13.7 µM | > 50 µM | 11.6 µM | 31.9 µM | 15.7 µM | > 50 µM | 0.0219 µM | 14.1 µM | 9.48 µM | 27.4 µM | 17 µM | 46.5 µM | 11 µM | 35.1 µM | 10.1 µM | 35.2 µM | 16.1 µM | > 50 µM
